From patent US11446287B2, “Compounds and methods for EP300 or CBP modulation and indications therefor” (Opna Immuno-Oncology SA, priority 2019, dated 2022)

Each compound was assayed against T1, Recombinant human BRD4 containing dual bromodomains (BRD4-BD12 (1-477)) (Homo sapiens, UniProt O60885) (assay: BRD4 Alphascreen binding assay).
T1 construct: Recombinant human BRD4 containing dual bromodomains (BRD4-BD12 (1-477)); made in house; host or cells: E. coli BL21-CodonPlus (DE3), modified pET vector
Summary of the method: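 His-tagged human BRD4 tandem bromodomains (1-477, E. coli) incubated 1 h at room temperature with biotinylated tetra-acetylated H4 (1-21) peptide and compound in HEPES pH 7.5 buffer with 2 mM DTT. AlphaScreen signal read 30 min after adding beads (7.5 μg/ml); IC50 from four-parameter fit after normalization to controls.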

Compound	IC50 [µM]
Cc1noc(C)c1-c1cnc2c(c1)c(-c1c(F)cc(C(=O)O)cc1OC(C)C)cn2C(C1CC1)C1CC1 [P-0369, 4-(1-(dicyclopropylmethyl)-5-(3,5-dimethylisoxazol-4-yl)-1H-pyrrolo[2,3-b]pyridin-3-yl)-3-fluoro-5-isopropoxybenzoic acid]	1 to 8
Cc1noc(C)c1-c1cnc2c(c1)c(-c1ccc(C(=O)O)cc1OC(F)(F)F)cn2-c1cnc(N)nc1 [P-0320, 4-(1-(2-aminopyrimidin-5-yl)-5-(3,5-dimethylisoxazol-4-yl)-1H-pyrrolo[2,3-b]pyridin-3-yl)-3-(trifluoromethoxy)benzoic acid]	1 to 8
Cc1noc(C)c1-c1cnc2c(c1)c(-c1ccc(C(F)(F)C(=O)O)cc1)cn2C(c1ccccn1)C1CCCC1 (centres unmarked) [P-0034, 2-(4-(1-(cyclopentyl(pyridin-2-yl)methyl)-5-(3,5-dimethylisoxazol-4-yl)-1H-pyrrolo[2,3-b]pyridin-3-yl)phenyl)-2,2-difluoroacetic acid]	1 to 8
COc1nc(C(=O)O)ccc1-c1cn(C2CCOCC2)c2ncc(-c3c(C)noc3C)cc12 [P-0368, 5-(5-(3,5-dimethylisoxazol-4-yl)-1-(tetrahydro-2H-pyran-4-yl)-1H-pyrrolo[2,3-b]pyridin-3-yl)-6-methoxypicolinic acid]	8 to 1000
Cc1noc(C)c1-c1cnc2c(c1)c(-c1ccc(C(=O)O)cc1OC(F)(F)F)cn2-c1cncnc1 [P-0319, 4-(5-(3,5-dimethylisoxazol-4-yl)-1-(pyrimidin-5-yl)-1H-pyrrolo[2,3-b]pyridin-3-yl)-3-(trifluoromethoxy)benzoic acid]	1 to 8
Cc1noc(C)c1-c1cnc2c(c1)c(-c1ccc(C(=O)O)cc1OC1CC1)cn2-c1ncccc1C#N [P-0337, 4-(1-(3-cyanopyridin-2-yl)-5-(3,5-dimethylisoxazol-4-yl)-1H-pyrrolo[2,3-b]pyridin-3-yl)-3-cyclopropoxybenzoic acid]	8 to 1000
Cc1noc(C)c1-c1cnc2c(c1)c(-c1c(Cl)cc(C(=O)O)cc1OCC(F)F)cn2[C@H]1CCOC1 [P-0333, (S)-3-chloro-5-(2,2-difluoroethoxy)-4-(5-(3,5-dimethylisoxazol-4-yl)-1-(tetrahydrofuran-3-yl)-1H-pyrrolo[2,3-b]pyridin-3-yl)benzoic acid]	8 to 1000
Cc1noc(C)c1-c1cnc2c(c1)c(-c1c(Cl)cc(C(=O)O)cc1OC1CCC1)cn2C(C1CC1)C1CC1 [P-0356, 3-chloro-5-cyclobutoxy-4-(1-(dicyclopropylmethyl)-5-(3,5-dimethylisoxazol-4-yl)-1H-pyrrolo[2,3-b]pyridin-3-yl)benzoic acid]	1 to 8
Cc1noc(C)c1-c1cnc2c(c1)c(-c1ccc(C(=O)O)c(O)c1)cn2C(c1ccccn1)C1CCCC1 (centres unmarked) [P-0030, 4-(1-(cyclopentyl(pyridin-2-yl)methyl)-5-(3,5-dimethylisoxazol-4-yl)-1H-pyrrolo[2,3-b]pyridin-3-yl)-2-hydroxybenzoic acid]	8 to 1000
CCOc1cc(C(=O)O)c(F)c(OCC)c1-c1cn(C2CCOCC2)c2ncc(-c3c(C)noc3C)cc12 [P-0374, 4-(5-(3,5-dimethylisoxazol-4-yl)-1-(tetrahydro-2H-pyran-4-yl)-1H-pyrrolo[2,3-b]pyridin-3-yl)-3,5-diethoxy-2-fluorobenzoic acid]	8 to 1000
Cc1noc(C)c1-c1cnc2c(c1)c(-c1ccc(C(=O)O)cc1OC(F)(F)F)cn2-c1cnn(C)c1 [P-0318, 4-(5-(3,5-dimethylisoxazol-4-yl)-1-(1-methyl-1H-pyrazol-4-yl)-1H-pyrrolo[2,3-b]pyridin-3-yl)-3-(trifluoromethoxy)benzoic acid]	0.0001 to 1
Cc1noc(C)c1-c1cnc2c(c1)c(-c1ccc(C(=O)O)cc1OC1CCC1)cn2C1CCOCC1 [P-0341, 3-cyclobutoxy-4-(5-(3,5-dimethylisoxazol-4-yl)-1-(tetrahydro-2H-pyran-4-yl)-1H-pyrrolo[2,3-b]pyridin-3-yl)benzoic acid]	8 to 1000
Cc1ncccc1-n1cc(-c2ccc(C(=O)O)cc2OC(F)(F)F)c2cc(-c3c(C)noc3C)cnc21 [P-0317, 4-(5-(3,5-dimethylisoxazol-4-yl)-1-(2-methylpyridin-3-yl)-1H-pyrrolo[2,3-b]pyridin-3-yl)-3-(trifluoromethoxy)benzoic acid]	8 to 1000
Cc1noc(C)c1-c1cnc2c(c1)c(-c1ccc(C(=O)O)cc1OCC(F)F)cn2C(C1CC1)C1CC1 [P-0338, 4-(1-(dicyclopropylmethyl)-5-(3,5-dimethylisoxazol-4-yl)-1H-pyrrolo[2,3-b]pyridin-3-yl)-3-(2,2-difluoroethoxy)benzoic acid]	8 to 1000
COc1ncccc1-n1cc(-c2ccc(C(=O)O)cc2OC(F)(F)F)c2cc(-c3c(C)noc3C)cnc21 [P-0316, 4-(5-(3,5-dimethylisoxazol-4-yl)-1-(2-methoxypyridin-3-yl)-1H-pyrrolo[2,3-b]pyridin-3-yl)-3-(trifluoromethoxy)benzoic acid]	1 to 8
Cc1noc(C)c1-c1cnc2c(c1)c(-c1ccc(C(=O)O)cc1OC(C)C)cn2C1CCOCC1 [P-0357, 4-(5-(3,5-dimethylisoxazol-4-yl)-1-(tetrahydro-2H-pyran-4-yl)-1H-pyrrolo[2,3-b]pyridin-3-yl)-3-isopropoxybenzoic acid]	8 to 1000
Cc1noc(C)c1-c1cnc2c(c1)c(-c1c(Cl)cc(C(=O)O)cc1OC(F)(F)F)cn2-c1cnc(C2CC2)nc1 [P-0386, 3-chloro-4-(1-(2-cyclopropylpyrimidin-5-yl)-5-(3,5-dimethylisoxazol-4-yl)-1H-pyrrolo[2,3-b]pyridin-3-yl)-5-(trifluoromethoxy)benzoic acid]	1 to 8
Cc1noc(C)c1-c1cnc2c(c1)c(-c1c(Cl)cc(C(=O)O)cc1OC1CC1)cn2C1CCOCC1 [P-0381, 3-chloro-5-cyclopropoxy-4-(5-(3,5-dimethylisoxazol-4-yl)-1-(tetrahydro-2H-pyran-4-yl)-1H-pyrrolo[2,3-b]pyridin-3-yl)benzoic acid]	1 to 8
Cc1noc(C)c1-c1cnc2c(c1)c(-c1ccc(C(=O)O)cc1OCC(F)F)cn2-c1cnc(C2CC2)nc1 [P-0387, 4-(1-(2-cyclopropylpyrimidin-5-yl)-5-(3,5-dimethylisoxazol-4-yl)-1H-pyrrolo[2,3-b]pyridin-3-yl)-3-(2,2-difluoroethoxy)benzoic acid]	8 to 1000
Cc1noc(C)c1-c1cnc2c(c1)c(-c1c(Cl)cc(C(=O)O)cc1OC(F)(F)F)cn2C(C1CCC1)C1CCC1 [P-0380, 3-chloro-4-(1-(dicyclobutylmethyl)-5-(3,5-dimethylisoxazol-4-yl)-1H-pyrrolo[2,3-b]pyridin-3-yl)-5-(trifluoromethoxy)benzoic acid]	8 to 1000
Cc1noc(C)c1-c1cnc2c(c1)c(-c1c(Cl)cc(C(=O)O)cc1OC1CC1)cn2C(C1CC1)C1CC1 [P-0363, 3-chloro-5-cyclopropoxy-4-(1-(dicyclopropylmethyl)-5-(3,5-dimethylisoxazol-4-yl)-1H-pyrrolo[2,3-b]pyridin-3-yl)benzoic acid]	1 to 8
Cc1noc(C)c1-c1cnc2c(c1)c(-c1ccc(C(=O)O)c(C(F)(F)F)c1)cn2C(c1ccccn1)C1CCCC1 (centres unmarked) [P-0029, 4-(1-(cyclopentyl(pyridin-2-yl)methyl)-5-(3,5-dimethylisoxazol-4-yl)-1H-pyrrolo[2,3-b]pyridin-3-yl)-2-(trifluoromethyl)benzoic acid]	1 to 8
CCOc1cc(C(=O)O)c(F)cc1-c1cn(C2CCOCC2)c2ncc(-c3c(C)noc3C)cc12 [P-0375, 4-(5-(3,5-dimethylisoxazol-4-yl)-1-(tetrahydro-2H-pyran-4-yl)-1H-pyrrolo[2,3-b]pyridin-3-yl)-5-ethoxy-2-fluorobenzoic acid]	8 to 1000
Cc1nn(CC(=O)N(C)C)cc1-n1cc(-c2ccc(C(=O)O)cc2OC(F)(F)F)c2cc(-c3c(C)noc3C)cnc21 [P-0366, 4-(1-(1-(2-(dimethylamino)-2-oxoethyl)-3-methyl-1H-pyrazol-4-yl)-5-(3,5-dimethylisoxazol-4-yl)-1H-pyrrolo[2,3-b]pyridin-3-yl)-3-(trifluoromethoxy)benzoic acid]	8 to 1000
Cc1noc(C)c1-c1cnc2c(c1)c(-c1ccc(CC(=O)O)cc1)cn2C(c1ccccn1)C1CCCC1 (centres unmarked) [P-0031, 2-(4-(1-(cyclopentyl(pyridin-2-yl)methyl)-5-(3,5-dimethylisoxazol-4-yl)-1H-pyrrolo[2,3-b]pyridin-3-yl)phenyl)acetic acid]	1 to 8
Cc1noc(C)c1-c1cnc2c(c1)c(-c1c(Cl)cc(C(=O)O)cc1OCC(F)F)cn2C1CCOCC1 [P-0359, 3-chloro-5-(2,2-difluoroethoxy)-4-(5-(3,5-dimethylisoxazol-4-yl)-1-(tetrahydro-2H-pyran-4-yl)-1H-pyrrolo[2,3-b]pyridin-3-yl)benzoic acid]	8 to 1000
Cc1noc(C)c1-c1cnc2c(c1)c(-c1ccc(C(=O)O)cc1OC1CCC1)cn2[C@H]1CCOC1 [P-0350, (S)-3-cyclobutoxy-4-(5-(3,5-dimethylisoxazol-4-yl)-1-(tetrahydrofuran-3-yl)-1H-pyrrolo[2,3-b]pyridin-3-yl)benzoic acid]	8 to 1000
Cc1noc(C)c1-c1cnc2c(c1)c(-c1ccc(C(=O)O)cc1Cl)cn2C(c1ccccn1)C1CCCC1 (centres unmarked) [P-0027, 3-chloro-4-(1-(cyclopentyl(pyridin-2-yl)methyl)-5-(3,5-dimethylisoxazol-4-yl)-1H-pyrrolo[2,3-b]pyridin-3-yl)benzoic acid]	1 to 8
Cc1noc(C)c1-c1cnc2c(c1)c(-c1ccc(C(=O)O)cc1OC(F)(F)F)cn2-c1cnc(N(C)C)nc1 [P-0321]	1 to 8
